The first assay deals with NF-kB activation induced by TNFα. Nature of the assay: TNFα Luciferase assay: inhibition of NF-kB activation induced by TNFα in HEK293/NF-kB luciferase cells. The class given is cell-based. To be noted: 25 ng/ml of TNF-α for four hours, quadruplicate, read-out: IC50, concentration at which NF-kB activation was reduced by 50%. The procedure:
Determination of Inhibition of NF-kB Activation Induced by TNFα . . . In Vitro Assay
The ability of a compound disclosed herein to inhibit NFkB activation induced by TNFα was determined using the TNFα Luciferase assay. The HEK293/NF-kB luciferase cell line was obtained by cotransfection of pNFkB-luc vector with pHyg (Panomics, CA, USA) followed by hygromycin selection. HEK293/NFkB Luciferase cells were grown in DMEM medium supplemented with 10% fetal bovine serum, 100 U/ml of penicillin, 100 ng/ml of streptomycin/Fungizone, and 100 μg/ml of hygromycin B as the selecting agent. HEK293 NFkB Luciferase cells were grown in T75 flasks (Nunc™ Cell Culture Treated EasYFlasks™) in a cell culture incubator at 37° C. and 5% CO2.
Confluent T75 cell culture flasks (approximately 8-10 million of cells per flask) were washed with 10 ml of sterile PBS (without calcium and magnesium) under a biosafety cabinet. After aspiration of the PBS with a sterile glass pipette, the layer of cells (for each T75 flask) was covered with 1 ml of TrypLE™ Express without phenol red (Gibco) at room temperature. After one minute of incubation, HEK293 were mechanically resuspended in the TrypLE by tapping the side of the flask. The cells were then resuspended with 10 ml of pre-warmed complete culture medium and transferred to a conical tube. Cells were centrifuged for 5 minutes at 4000 rpm (1000 g) at room temperature. The cellular pellet was resuspended with 24 ml of pre-warmed cell culture media and […] of cell suspension (approximately 80,000 cells per well) was plated per well in 96-well cell culture plates (Costar #3599, Corning, N.Y., USA) using a multichannel pipette and reversed pipetting to prevent air bubble formation. After plating, the cells were maintained overnight in the cell culture incubator before being treated. For each 96 well cell culture plate, 8 wells were used as “control wells” (only culture medium added) and to 8 wells only TNFα was added. The NF-kB Luciferase reporter cell line was challenged with 25 ng/ml of TNF-α for four hours in the presence and absence (control conditions) of a dose range of the different compounds to be tested. For each compound, a dose range of concentrations was tested in quadruplicate and used to determine an IC50.
Luciferase activity was monitored using the Luc-Screen® Extended-Glow Luciferase Reporter Gene Assay System by chemoluminescence according to the instruction of the manufacturer (Invitrogen) and a BioTek Synergy HT plate reader (BioTek Instruments, VT, USA).
In the case of `C[C@H](NC(=O)c1cccc([N+](=O)[O-])c1)C(=O)N1CC=CCC1c1cccnc1` (stereo partly drawn) [Compound 9], the IC50 worked out at 200 µM.

Staying with this assay, now noted: Homo sapiens, 4 h, 25 ng/ml of TNF-α for four hours, quadruplicate, read-out: IC50, concentration at which NF-kB activation was reduced by 50%.
Regarding `CC(C)[C@@H](C(=O)N1CC=CC[C@H]1c1cccnc1)N1C(=O)c2ccccc2C1=O` (single isomer, unassigned) [Compound 3], the IC50 stood at 750 µM.

Take `CC(C)[C@@H](C(=O)N1CC=CC[C@@H]1c1cccnc1)N1C(=O)c2ccccc2C1=O` (single isomer, unassigned) [Compound 4]: the IC50 was determined as 550 µM.

Take `C[C@@H](C(=O)N1CC=CCC1c1cccnc1)N1C(=O)c2ccccc2C1=O` (stereo partly drawn) [Compound 1, 2-((2S)-1-oxo-1-(6-(pyridin-3-yl)-5,6-dihydropyridin-1(2H)-yl)propan-2-yl)isoindoline-1,3-dione]: the IC50 worked out at 375 µM.

For `C[C@@H](C(=O)N1CC=CC[C@H]1c1cccnc1)N1C(=O)c2ccccc2C1=O` [Compound 2, 2-((S)-1-oxo-1-((S)-6-(pyridin-3-yl)-5,6-dihydropyridin-1(2H)-yl)propan-2-yl)isoindoline-1,3-dione], the IC50 amounted to 425 µM.

Take `O=C(C(Cc1ccccc1)N1C(=O)c2ccccc2C1=O)N1CC=CCC1c1cccnc1` (stereo not drawn) [Compound 7, 2-(1-oxo-3-phenyl-1-(6-(pyridin-3-yl)-5,6-dihydropyridin-1(2H)-yl)propan-2-yl)isoindoline-1,3-dione]: the IC50 was 225 µM.

Take `O=C1c2ccccc2C(=O)N1CC(=O)N1CC=CCC1c1cccnc1` (stereo not drawn) [Compound 8, 2-(2-oxo-2-(6-(pyridin-3-yl)-5,6-dihydropyridin-1(2H)-yl)ethyl)isoindoline-1,3-dione]: the IC50 was 550 µM.

In the case of `COc1cccc(C(=O)N[C@@H](C)C(=O)N2CC=CCC2c2cccnc2)c1` (stereo partly drawn) [Compound 10, 3-methoxy-N-((2S)-1-oxo-1-(6-(pyridin-3-yl)-5,6-dihydropyridin-1(2H)-yl)propan-2-yl)benzamide], the IC50 stood at 125 µM.

For `CCOc1ccc(C(=O)N[C@@H](C)C(=O)N2CC=CCC2c2cccnc2)cc1OCC` (stereo partly drawn) [Compound 11, 3,4-diethoxy-N-((2S)-1-oxo-1-(6-(pyridin-3-yl)-5,6-dihydropyridin-1(2H)-yl)propan-2-yl)benzamide], the IC50 came to 250 µM.

Regarding `COc1ccc(C(=O)N[C@@H](C)C(=O)N2CC=CCC2c2cccnc2)cc1OC` (stereo partly drawn) [Compound 12, 3,4-dimethoxy-N-((2S)-1-oxo-1-(6-(pyridin-3-yl)-5,6-dihydropyridin-1(2H)-yl)propan-2-yl)benzamide], the IC50 came to 470 µM.

As for `C[C@H](NC(=O)c1ccc([N+](=O)[O-])cc1)C(=O)N1CC=CCC1c1cccnc1` (stereo partly drawn) [Compound 13, 4-nitro-N-((2S)-1-oxo-1-(6-(pyridin-3-yl)-5,6-dihydropyridin-1(2H)-yl)propan-2-yl)benzamide], the IC50 turned out to be 276 µM.

In the case of `C[C@H](NC(=O)c1ccc(Cl)cc1)C(=O)N1CC=CCC1c1cccnc1` (stereo partly drawn) [Compound 14, 4-chloro-N-((2S)-1-oxo-1-(6-(pyridin-3-yl)-5,6-dihydropyridin-1(2H)-yl)propan-2-yl)benzamide], the IC50 is 170 µM.

`O=C(NC(Cc1ccccc1)C(=O)N1CC=CCC1c1cccnc1)c1cccc([N+](=O)[O-])c1` (stereo not drawn) [Compound 15, 3-nitro-N-(1-oxo-3-phenyl-1-(6-(pyridin-3-yl)-5,6-dihydropyridin-1(2H)-yl)propan-2-yl)benzamide]: the IC50 is 4.3 µM.

With `COc1cccc(C(=O)NC(Cc2ccccc2)C(=O)N2CC=CCC2c2cccnc2)c1` (stereo not drawn) [Compound 16, 3-methoxy-N-(1-oxo-3-phenyl-1-(6-(pyridin-3-yl)-5,6-dihydropyridin-1 (2H)-yl)propan-2-yl)benzamide], the IC50 amounted to 2 µM.

Consider `C[C@H](C(=O)N1CC=CCC1c1cccnc1)N1C(=O)c2ccccc2C1=O` (stereo partly drawn) [Compound 17, 2-((2R)-1-oxo-1-(6-(pyridin-3-yl)-5,6-dihydropyridin-1(2H)-yl)propan-2-yl)isoindoline-1,3-dione], for which the IC50 was found to be 140 µM.

`O=C(NC(Cc1ccccc1)C(=O)N1CC=CCC1c1cccnc1)c1cccc(Cl)c1` (stereo not drawn) [Compound 18, 3-chloro-N-(1-oxo-3-phenyl-1-(6-(pyridin-3-yl)-5,6-dihydropyridin-1(2H)-yl)propan-2-yl)benzamide]: the IC50 was 7 µM.

Regarding `O=C(NC(Cc1ccccc1)C(=O)N1CC=CCC1c1cccnc1)c1cccc(F)c1` (stereo not drawn) [Compound 19, 3-fluoro-N-(1-oxo-3-phenyl-1-(6-(pyridin-3-yl)-5,6-dihydropyridin-1(2H)-yl)propan-2-yl)benzamide], the IC50 worked out at 5.4 µM.

On to `CCOc1cccc(C(=O)NC(Cc2ccccc2)C(=O)N2CC=CCC2c2cccnc2)c1` (stereo not drawn) [Compound 20, 3-ethoxy-N-(1-oxo-3-phenyl-1-(6-(pyridin-3-yl)-5,6-dihydropyridin-1(2H)-yl)propan-2-yl)benzamide], for which the IC50 is 1.5 µM.

Consider `COc1ccc(C(=O)NC(Cc2ccccc2)C(=O)N2CC=CCC2c2cccnc2)cc1OC` (stereo not drawn) [Compound 21, 3,4-dimethoxy-N-(1-oxo-3-phenyl-1-(6-(pyridin-3-yl)-5,6-dihydropyridin-1(2H)-yl)propan-2-yl)benzamide], for which the IC50 stood at 4.5 µM.

For the molecule `O=C(NC(Cc1ccccc1)C(=O)N1CC=CCC1c1cccnc1)c1cccc(C(F)(F)F)c1` (stereo not drawn) [Compound 23, N-(1-oxo-3-phenyl-1-(6-(pyridin-3-yl)-5,6-dihydropyridin-1(2H)-yl)propan-2-yl)-3-(trifluoromethyl)benzamide], the IC50 was 6.5 µM.

In the case of `COc1cc(F)cc(C(=O)NC(Cc2ccccc2)C(=O)N2CC=CCC2c2cccnc2)c1` (stereo not drawn) [Compound 24, 3-fluoro-5-methoxy-N-(1-oxo-3-phenyl-1-(6-(pyridin-3-yl)-5,6-dihydropyridin-1(2H)-yl)propan-2-yl)benzamide], the IC50 came to 4 µM.

In the case of `COc1cccc(C(=O)N[C@H](Cc2ccccc2)C(=O)N2CC=CCC2c2cccnc2)c1` (stereo partly drawn) [Compound 25, 3-methoxy-N-((2R)-1-oxo-3-phenyl-1-(6-(pyridin-3-yl)-5,6-dihydropyridin-1(2H)-yl)propan-2-yl)benzamide], the IC50 was determined as 2.5 µM.

Regarding `CCOc1cc(C(=O)N[C@H](Cc2ccccc2)C(=O)N2CC=CCC2c2cccnc2)ccc1OC` (stereo partly drawn) [Compound 26, 3-ethoxy-4-methoxy-N-((2R)-1-oxo-3-phenyl-1-(6-(pyridin-3-yl)-5,6-dihydropyridin-1(2H)-yl)propan-2-yl)benzamide], the IC50 is 2.8 µM.

For the molecule `COc1ccc(Cl)c(C(=O)N[C@H](Cc2ccccc2)C(=O)N2CC=CCC2c2cccnc2)c1` (stereo partly drawn) [Compound 27, 2-chloro-5-methoxy-N-((2R)-1-oxo-3-phenyl-1-(6-(pyridin-3-yl)-5,6-dihydropyridin-1(2H)-yl)propan-2-yl)benzamide], the IC50 came out at 4 µM.

For the molecule `COc1cc(OC)cc(C(=O)N[C@H](Cc2ccccc2)C(=O)N2CC=CCC2c2cccnc2)c1` (stereo partly drawn) [Compound 28, 3,5-dimethoxy-N-((2R)-1-oxo-3-phenyl-1-(6-(pyridin-3-yl)-5,6-dihydropyridin-1(2H)-yl)propan-2-yl)benzamide], the IC50 is 6.5 µM.

Turning to `COc1ccc(C)c(C(=O)N[C@H](Cc2ccccc2)C(=O)N2CC=CCC2c2cccnc2)c1` (stereo partly drawn) [Compound 29, 5-methoxy-2-methyl-N-((2R)-1-oxo-3-phenyl-1-(6-(pyridin-3-yl)-5,6-dihydropyridin-1(2H)-yl)propan-2-yl)benzamide], the IC50 is 8 µM.

As to `COc1cc(Cl)ccc1C(=O)N[C@H](Cc1ccccc1)C(=O)N1CC=CCC1c1cccnc1` (stereo partly drawn) [Compound 30, 4-chloro-2-methoxy-N-((2R)-1-oxo-3-phenyl-1-(6-(pyridin-3-yl)-5,6-dihydropyridin-1(2H)-yl)propan-2-yl)benzamide], the IC50 amounted to 4.3 µM.

For the molecule `COc1cc(C(=O)N[C@H](Cc2ccccc2)C(=O)N2CC=CCC2c2cccnc2)ccc1F` (stereo partly drawn) [Compound 31, 4-fluoro-3-methoxy-N-((2R)-1-oxo-3-phenyl-1-(6-(pyridin-3-yl)-5,6-dihydropyridin-1(2H)-yl)propan-2-yl)benzamide], the IC50 was 1.7 µM.

Turning to `COc1ccccc1C(=O)N[C@H](Cc1ccccc1)C(=O)N1CC=CCC1c1cccnc1` (stereo partly drawn) [Compound 32, 2-methoxy-N-((2R)-1-oxo-3-phenyl-1-(6-(pyridin-3-yl)-5,6-dihydropyridin-1(2H)-yl)propan-2-yl)benzamide], the IC50 turned out to be 8.6 µM.

For the molecule `CCOc1cccc(C(=O)N[C@@H](Cc2ccccc2)C(=O)N2CC=CCC2c2cccnc2)c1` (stereo partly drawn) [Compound 33, 3-ethoxy-N-((2S)-1-oxo-3-phenyl-1-(6-(pyridin-3-yl)-5,6-dihydropyridin-1(2H)-yl)propan-2-yl)benzamide], the IC50 was 1.8 µM.

These data come from patent publication US20220081415A1, “Amino Acid Derivatives for the Treatment of Inflammatory Diseases” (The Roskamp Institute, priority 2019, published 2022).
